Measured values: US10722475B2, “Stealth nanocapsules for protein delivery” (THE REGENTS OF THE UNIVERSITY OF CALIFORNIA, priority 2014, dated 2020)

What was measured:
[1] = system: native glucose oxidase (GOx); experiment: Activity assay, HRP-coupled oxidation rate of TMB with D-gluocose; type: biochemical
Method: (§6) The activity of native GOx, pMPC-nGOx, native AOx, and pMPC-nAOx were determined with a similar method. Briefly, the initial reaction rates were determined by monitoring the oxidation rates of TMB of GOx and AOx when incubating with the assay solutions with different concentrations of substrates, respectively. For native GOx and pMPC-nGOx, the assay solutions were prepared by mixing TMB (0.5 mM), native HRP (0.001 mg/mL), and different amount of D-gluocose (0.005%, 0.010%, 0.015%, 0.020%, 0.030%, 0.040%, w/v) in 0.1 M phosphate buffer (pH 7.0). […] The measurements were achieved by monitoring the A655 of the reaction solutions during the incubation of 1 μL of native enzyme or pMPC-nProtein (0.5 mg/mL for native GOx and pMPC-nGOx, 1 mg/mL for native AOx and pMPC-nAOx) with their corresponding assay solution.

[2] = system: pMPC-nGOx (glucose oxidase encapsulated in a pMPC nanocapsule); experiment: as above; type: biochemical
Method: as §6

[3] = system: pMPC-nHRP (horseradish peroxidase encapsulated in a pMPC nanocapsule)
Excerpt: (§1) To verify this, four enzymes, including horseradish peroxidase (HRP), glucose oxidase (GOx), uricase (UOx), and alcohol oxidase (AOx), were encapsulated with the same method, and their enzymatic activities were compared with their native counterparts, respectively.
(§2) After acryloxylation, protein was encapsulated with pMPC using a in situ polymerization method. For the polymerization, 2-Methacryloyloxyethyl phosphorylcholine (MPC) and bis-methacrylamide (BIS) were first prepared as 10% (w/v) stock solution in DI-water and anhydrous DMSO, respectively. The final protein concentration was tuned to 1 mg/mL by diluting with phosphate buffer (50 mM, pH 7.0). Polymerization was initiated by the addition of ammonium persulfate (APS) and tetramethylethylenediamine (TEMED) and kept at room temperature for 2 h. After the polymerization, the solution was dialyzed against PBS to remove unreacted monomers and by-products. The detailed synthesis parameters of pMPC-nEGFP, pMPC-nOVA, pMPC-nHRP, pMPC-nGOx, pMPC-nUOx, pMPC-nAOx, pMPC-nTf, and pMPC-nBSA were listed in Table 5.
(§3) The activity of pMPC-nHRP and native HRP were determined by monitoring the oxidation rate of 3,3′,5,5′-tetramethylbenzidine (TMB) using hydrogen peroxide (H2O2) as the substrate. Briefly, a series of H2O2 stock solutions with concentrations of 0.001%, 0.002%, 0.003%, 0.004%, 0.006%, 0.008% (w/v) was prepared by diluting a 50% H2O2 (w/v) with 0.1 M acetate buffer (pH 5.01) with 0.5 mM TMB. After mixing 1 mL of the substrate solution with 1 μL of pMPC-nHRP (0.1 mg/mL) or native HRP, the absorbance at 655 nm (A655) of the reaction solution was monitored with a UV-Vis spectrometer for 3 min. The absorption curve was plotted versus time and ΔA655/min from the linear portion of the curve was calculated. The activity assays were repeated with a series of concentrations of substrate to get the catalytic rates to obtain KM^app and kcat^app by the Lineweaver—Burk plot.

[4] = molecular target: T1, native horseradish peroxidase (HRP) (Armoracia rusticana, UniProt P00433); experiment: Activity assay, oxidation rate of TMB with H2O2 as substrate; type: biochemical
T1 construct: H2O2 substrate with TMB
T1 sequence (P00433 31-338): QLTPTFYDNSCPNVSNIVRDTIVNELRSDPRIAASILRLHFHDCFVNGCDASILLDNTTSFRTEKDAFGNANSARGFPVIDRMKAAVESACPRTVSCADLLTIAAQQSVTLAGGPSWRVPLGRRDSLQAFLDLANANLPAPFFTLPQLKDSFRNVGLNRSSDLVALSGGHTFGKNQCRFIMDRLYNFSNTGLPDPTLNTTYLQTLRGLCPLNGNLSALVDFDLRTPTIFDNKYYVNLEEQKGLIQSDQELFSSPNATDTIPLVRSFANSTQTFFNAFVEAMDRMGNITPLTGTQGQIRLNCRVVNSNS

[5] = system: native alcohol oxidase (AOx)
Method: as §1, §3
(§4) The activity of native GOx, pMPC-nGOx, native AOx, and pMPC-nAOx were determined with a similar method. Briefly, the initial reaction rates were determined by monitoring the oxidation rates of TMB of GOx and AOx when incubating with the assay solutions with different concentrations of substrates, respectively. For native GOx and pMPC-nGOx, the assay solutions were prepared by mixing TMB (0.5 mM), native HRP (0.001 mg/mL), and different amount of D-gluocose (0.005%, 0.010%, 0.015%, 0.020%, 0.030%, 0.040%, w/v) in 0.1 M phosphate buffer (pH 7.0). For native AOx and pMPC-nAOx, the assay solutions were composed by TMB (0.5 mM), native HRP (0.001 mg/mL), and different amount of ethanol (0.0025%, 0.005%, 0.0075%, 0.010%, 0.020%, 0.030%, w/v) in 0.1 M phosphate buffer (pH 7.0). The measurements were achieved by monitoring the A655 of the reaction solutions during the incubation of 1 μL of native enzyme or pMPC-nProtein (0.5 mg/mL for native GOx and pMPC-nGOx, 1 mg/mL for native AOx and pMPC-nAOx) with their corresponding assay solution.

[6] = system: pMPC-nAOx (alcohol oxidase encapsulated in a pMPC nanocapsule)
Excerpt: as §1, §2, §3
as §4, with “The measurements were achieved by monitoring the A655 of the reaction solutions during the incubation of 1 μL of native enzyme or pMPC-nProtein (0.5 mg/mL for native GOx and pMPC-nGOx, 1 mg/mL for native AOx and pMPC-nAOx) with their corresponding assay solution.” left out

native uricase (UOx) = experiment: Activity assay, decrease of A290 with urate; type: biochemical
Excerpt: (§5) The initial rates were achieved by plotting the absorption at 290 nm versus time and calculating the ΔA290/min from the linear portion of the curve.

[7] = system: pMPC-nUOx (uricase encapsulated in a pMPC nanocapsule); experiment: Activity assay, decrease of A290 with urate; type: biochemical
Excerpt: as §5

For `OC[C@H]1OC(O)[C@H](O)[C@@H](O)[C@@H]1O` (stereo partly drawn) [D-gluocose], the “Kcat^app/KM^app relative to native” value ([1]; native GOx = 100%) was 100 ± 34.5%, the “kcat^app” value ([1]; native GOx, 0.1 M phosphate buffer pH 7.0, 0.5 mM TMB, HRP 0.001 mg/mL) was 87.9 s⁻¹ and the Km ([1]; native GOx, 0.1 M phosphate buffer pH 7.0, 0.5 mM TMB, HRP 0.001 mg/mL, read-out: KM^app) was 18 ± 6.21 mM. The “Kcat^app/KM^app” value ([1]; native GOx, pH 7.0) was 4.883 ± 1.684 mM⁻¹ s⁻¹, the “Kcat^app/KM^app relative to native” value ([2]; pMPC-nGOx vs native GOx) was 73.7 ± 31.1% and the “kcat^app” value ([2]; pMPC-nGOx, 0.1 M phosphate buffer pH 7.0, 0.5 mM TMB, HRP 0.001 mg/mL) was 77.6 s⁻¹. The Km ([2]; pMPC-nGOx, 0.1 M phosphate buffer pH 7.0, 0.5 mM TMB, HRP 0.001 mg/mL, read-out: KM^app) was 21.6 ± 6.7 mM and the “Kcat^app/KM^app” value ([2]; pMPC-nGOx, pH 7.0) was 3.600 ± 1.119 mM⁻¹ s⁻¹.

In the case of `OO` [H2O2, hydrogen peroxide], the “Kcat^app/KM^app relative to native” value ([3]; pMPC-nHRP vs native HRP) is reported as 91.1 ± 28.1%, the “kcat^app” value ([3]; pMPC-nHRP, 0.1 M acetate buffer pH 5.01, 0.5 mM TMB, Lineweaver-Burk) is reported as 480 s⁻¹ and the “Kcat^app/KM^app” value ([3]; pMPC-nHRP, pH 5.01, 0.5 mM TMB) is reported as 3966.9 ± 1114.7 mM⁻¹ s⁻¹. The Km ([3]; read-out: KM^app, pMPC-nHRP, 0.1 M acetate buffer pH 5.01, 0.5 mM TMB, Lineweaver-Burk) was 121 ± 34 µM, the “Kcat^app/KM^app relative to native” value ([4]; native HRP = 100%) was 100 ± 22.7% and the “kcat^app” value ([4]; native HRP, 0.1 M acetate buffer pH 5.01, 0.5 mM TMB, Lineweaver-Burk) was 403 s⁻¹.

In the case of `CCO` [ethanol], the “Kcat^app/KM^app relative to native” value ([5]; native AOx = 100%) is reported as 100 ± 23.61%, the “kcat^app” value ([5]; native AOx, 0.1 M phosphate buffer pH 7.0, 0.5 mM TMB, HRP 0.001 mg/mL) is reported as 18.8 s⁻¹ and the “Kcat^app/KM^app” value ([5]; native AOx, pH 7.0) is reported as 6.047 ± 1.428 mM⁻¹ s⁻¹. The Km ([5]; read-out: KM^app, native AOx, 0.1 M phosphate buffer pH 7.0, 0.5 mM TMB, HRP 0.001 mg/mL) was 3.11 ± 0.72 mM, the “Kcat^app/KM^app relative to native” value ([6]; pMPC-nAOx vs native AOx) was 75.6 ± 28.00% and the “kcat^app” value ([6]; pMPC-nAOx, 0.1 M phosphate buffer pH 7.0, 0.5 mM TMB, HRP 0.001 mg/mL) was 23.4 s⁻¹. The “Kcat^app/KM^app” value ([6]; pMPC-nAOx, pH 7.0) was 4.570 ± 1.279 mM⁻¹ s⁻¹ and the Km ([6]; read-out: KM^app, pMPC-nAOx, 0.1 M phosphate buffer pH 7.0, 0.5 mM TMB, HRP 0.001 mg/mL) was 5.12 ± 1.43 mM.

`O=c1[nH]c(=O)c2[nH]c(=O)[nH]c2[nH]1` [urate] was tested, and the “Kcat^app/KM^app relative to native” value (native uricase (UOx); native UOx = 100%) was 100 ± 7.7%, the “kcat^app” value (native uricase (UOx); native UOx, 0.1 M borate buffer pH 8) was 3.36 s⁻¹ and the Km (native uricase (UOx); native UOx, 0.1 M borate buffer pH 8, read-out: KM^app) was 21.9 ± 1.7 µM. For the same molecule, the “Kcat^app/KM^app” value (native uricase (UOx); native UOx, pH 8) was 153.4 ± 11.8 mM⁻¹ s⁻¹, the “Kcat^app/KM^app relative to native” value ([7]; pMPC-nUOx vs native UOx) was 90.4 ± 16.5% and the “kcat^app” value ([7]; pMPC-nUOx, 0.1 M borate buffer pH 8) was 3.59 s⁻¹. The Km ([7]; pMPC-nUOx, 0.1 M borate buffer pH 8, read-out: KM^app) was 25.9 ± 4.3 µM and the “Kcat^app/KM^app” value ([7]; pMPC-nUOx, pH 8) was 138.6 ± 22.9 mM⁻¹ s⁻¹.
